Source: ChEMBL document CHEMBL5223091, “Targeting the Mitotic Kinesin KIF18A in Chromosomally Unstable Cancers: Hit Optimization Toward an In Vivo Chemical Probe” (J Med Chem, 2022)
In brackets after ≈: the same amount, converted by molar mass. Activity calls are given as the source filed them. The rule behind the calls is not given here.

How the values were obtained:
[1] = tested on: OVCAR-3; experiment: Antimitotic activity in human OVCAR-3 cells xenografted in CD-1 mouse assessed as time prolongation of mitotic arrest per day at 100 mg/kg, po; format: functional
[2] = Kinetic solubility of compound at pH 2; format: physicochemical; conditions: buffer, read-out: Kinetic_solubility
[3] = Volume of distribution at steady state in CD-1 mouse at 1 mg/kg, iv and 10 mg/kg, po; format: ADME, organism-based; conditions: in vivo
[4] = tested on: OVCAR-3; experiment: Induction of mitotic arrest in human OVCAR-3 cells assessed as p-histone H3 incubated for 24 hrs by mitotic - imaging assay; format: functional, cell-based; conditions: OVCAR-3, 24 h
[5] = Cmax in CD-1 mouse xenografted with human OVCAR-3 cells at 100 mg/kg, ip by LC-MS/MS analysis; format: ADME, organism-based; set-up: dose 100 mg/kg, route ip; conditions: in vivo
[6] = Unbound fraction in CD-1 mouse plasma xenografted with human OVCAR-3 cells at 100 mg/kg, po by LC-MS/MS analysis; format: ADME, organism-based
[7] = target: Centromere-associated protein E (Homo sapiens, UniProt Q02224); experiment: Inhibition of recombinant GST-tagged human CENP-E assessed as inhibition of microtubule-stimulated ATPase activity preincubated for 30 mins followed by ATP addition and further incubated for 15 mins by ADP-Glo reagent based assay
Centromere-associated protein E, sequence (Q02224 whole entry): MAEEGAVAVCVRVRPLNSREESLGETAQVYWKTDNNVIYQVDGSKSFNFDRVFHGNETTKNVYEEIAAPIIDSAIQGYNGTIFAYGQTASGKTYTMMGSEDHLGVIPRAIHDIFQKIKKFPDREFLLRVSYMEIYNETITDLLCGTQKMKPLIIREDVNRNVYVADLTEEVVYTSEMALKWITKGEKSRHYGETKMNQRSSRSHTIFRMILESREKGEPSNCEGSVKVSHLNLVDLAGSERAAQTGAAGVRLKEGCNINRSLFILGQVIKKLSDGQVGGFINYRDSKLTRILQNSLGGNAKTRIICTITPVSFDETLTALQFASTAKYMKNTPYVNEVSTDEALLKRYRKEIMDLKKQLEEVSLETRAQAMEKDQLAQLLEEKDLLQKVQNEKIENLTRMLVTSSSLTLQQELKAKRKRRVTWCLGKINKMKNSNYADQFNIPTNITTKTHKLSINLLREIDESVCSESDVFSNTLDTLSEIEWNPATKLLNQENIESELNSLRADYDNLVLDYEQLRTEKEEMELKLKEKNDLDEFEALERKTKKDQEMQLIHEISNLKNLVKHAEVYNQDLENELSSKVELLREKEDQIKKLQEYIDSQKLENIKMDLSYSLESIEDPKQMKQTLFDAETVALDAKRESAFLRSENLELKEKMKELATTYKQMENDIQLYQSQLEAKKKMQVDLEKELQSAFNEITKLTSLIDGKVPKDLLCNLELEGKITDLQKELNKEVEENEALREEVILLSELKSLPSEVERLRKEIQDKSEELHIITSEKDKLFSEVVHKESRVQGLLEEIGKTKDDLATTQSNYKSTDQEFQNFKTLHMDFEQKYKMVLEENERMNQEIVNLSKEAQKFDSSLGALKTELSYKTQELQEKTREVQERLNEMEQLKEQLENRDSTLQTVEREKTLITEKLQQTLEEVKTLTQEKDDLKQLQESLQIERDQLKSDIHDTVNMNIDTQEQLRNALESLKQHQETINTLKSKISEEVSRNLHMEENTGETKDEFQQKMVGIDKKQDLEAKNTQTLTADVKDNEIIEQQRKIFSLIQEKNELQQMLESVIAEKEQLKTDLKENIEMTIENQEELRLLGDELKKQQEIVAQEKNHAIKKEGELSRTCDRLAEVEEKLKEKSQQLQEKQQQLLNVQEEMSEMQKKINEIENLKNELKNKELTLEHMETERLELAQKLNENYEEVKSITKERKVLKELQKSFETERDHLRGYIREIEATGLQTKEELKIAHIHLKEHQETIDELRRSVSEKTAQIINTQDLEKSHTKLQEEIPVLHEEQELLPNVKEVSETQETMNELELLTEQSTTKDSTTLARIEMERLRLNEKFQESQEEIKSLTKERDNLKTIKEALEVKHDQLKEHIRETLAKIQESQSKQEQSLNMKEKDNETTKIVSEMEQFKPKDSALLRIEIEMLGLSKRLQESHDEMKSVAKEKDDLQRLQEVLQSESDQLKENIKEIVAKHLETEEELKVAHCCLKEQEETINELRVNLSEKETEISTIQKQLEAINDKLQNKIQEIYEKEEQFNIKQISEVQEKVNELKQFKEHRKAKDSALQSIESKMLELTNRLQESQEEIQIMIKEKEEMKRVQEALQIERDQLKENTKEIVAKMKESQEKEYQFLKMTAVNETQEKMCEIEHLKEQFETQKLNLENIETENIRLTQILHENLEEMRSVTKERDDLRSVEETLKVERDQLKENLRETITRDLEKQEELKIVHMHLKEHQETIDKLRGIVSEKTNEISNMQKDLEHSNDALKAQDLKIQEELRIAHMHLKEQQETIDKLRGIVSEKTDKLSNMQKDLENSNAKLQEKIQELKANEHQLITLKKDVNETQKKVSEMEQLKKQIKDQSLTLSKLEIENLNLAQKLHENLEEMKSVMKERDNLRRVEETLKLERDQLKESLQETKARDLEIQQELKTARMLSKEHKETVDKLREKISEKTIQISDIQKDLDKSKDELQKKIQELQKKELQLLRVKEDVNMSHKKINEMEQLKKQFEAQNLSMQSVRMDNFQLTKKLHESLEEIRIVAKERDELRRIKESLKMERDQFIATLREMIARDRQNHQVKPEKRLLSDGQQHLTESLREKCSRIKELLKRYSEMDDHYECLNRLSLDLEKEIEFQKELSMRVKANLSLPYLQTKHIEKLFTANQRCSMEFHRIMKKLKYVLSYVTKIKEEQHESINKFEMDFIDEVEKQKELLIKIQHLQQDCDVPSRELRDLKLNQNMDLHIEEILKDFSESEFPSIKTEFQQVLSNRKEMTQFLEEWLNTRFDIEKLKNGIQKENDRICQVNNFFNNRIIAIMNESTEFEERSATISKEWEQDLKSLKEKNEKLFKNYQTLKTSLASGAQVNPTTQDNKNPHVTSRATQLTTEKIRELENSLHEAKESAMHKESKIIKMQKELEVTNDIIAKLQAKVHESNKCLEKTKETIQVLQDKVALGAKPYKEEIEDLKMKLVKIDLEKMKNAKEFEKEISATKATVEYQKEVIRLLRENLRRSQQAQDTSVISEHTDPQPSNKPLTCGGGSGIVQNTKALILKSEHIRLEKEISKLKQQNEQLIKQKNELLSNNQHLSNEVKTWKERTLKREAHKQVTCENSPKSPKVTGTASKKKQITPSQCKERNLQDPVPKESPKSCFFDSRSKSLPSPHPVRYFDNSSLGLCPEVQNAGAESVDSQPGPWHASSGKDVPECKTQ

[8] = tested on: OVCAR-3; experiment: Antimitotic activity in human OVCAR-3 cells xenografted in CD-1 mouse assessed as increase in phospho-histone H3 positive cells in tumor at 100 mg/kg, po measured after 24 hrs; format: functional, organism-based
[9] = Oral bioavailability in CD-1 mouse at 10 mg/kg; format: ADME, organism-based; conditions: in vivo
[10] = Drug uptake in CD-1 mouse xenografted with human OVCAR-3 cells measured in tumor at 100 mg/kg, po measured after 8 hrs; format: ADME, organism-based, Neoplasm; conditions: read-out: Drug uptake
[11] = Plasma concentration in CD-1 mouse xenografted with human OVCAR-3 cells at 100 mg/kg, po measured after 8 hrs; format: ADME, organism-based
[12] = Kinetic solubility of compound in FaSSIF; format: ADME; conditions: read-out: Kinetic_solubility
[13] = target: T1, Kinesin-like protein KIF18A (Mus musculus, UniProt Q91WD7); experiment: Inhibition of recombinant His-tagged mouse KIF18A expressed in Trichoplusia ni insect cells assessed as inhibition of microtubule-stimulated ATPase activity preincubated for 30 mins followed by ATP addition and further incubated for 15 mins by ADP-Glo reagent based assay; set-up: species or system Insect cell
T1 sequence (Q91WD7 whole entry): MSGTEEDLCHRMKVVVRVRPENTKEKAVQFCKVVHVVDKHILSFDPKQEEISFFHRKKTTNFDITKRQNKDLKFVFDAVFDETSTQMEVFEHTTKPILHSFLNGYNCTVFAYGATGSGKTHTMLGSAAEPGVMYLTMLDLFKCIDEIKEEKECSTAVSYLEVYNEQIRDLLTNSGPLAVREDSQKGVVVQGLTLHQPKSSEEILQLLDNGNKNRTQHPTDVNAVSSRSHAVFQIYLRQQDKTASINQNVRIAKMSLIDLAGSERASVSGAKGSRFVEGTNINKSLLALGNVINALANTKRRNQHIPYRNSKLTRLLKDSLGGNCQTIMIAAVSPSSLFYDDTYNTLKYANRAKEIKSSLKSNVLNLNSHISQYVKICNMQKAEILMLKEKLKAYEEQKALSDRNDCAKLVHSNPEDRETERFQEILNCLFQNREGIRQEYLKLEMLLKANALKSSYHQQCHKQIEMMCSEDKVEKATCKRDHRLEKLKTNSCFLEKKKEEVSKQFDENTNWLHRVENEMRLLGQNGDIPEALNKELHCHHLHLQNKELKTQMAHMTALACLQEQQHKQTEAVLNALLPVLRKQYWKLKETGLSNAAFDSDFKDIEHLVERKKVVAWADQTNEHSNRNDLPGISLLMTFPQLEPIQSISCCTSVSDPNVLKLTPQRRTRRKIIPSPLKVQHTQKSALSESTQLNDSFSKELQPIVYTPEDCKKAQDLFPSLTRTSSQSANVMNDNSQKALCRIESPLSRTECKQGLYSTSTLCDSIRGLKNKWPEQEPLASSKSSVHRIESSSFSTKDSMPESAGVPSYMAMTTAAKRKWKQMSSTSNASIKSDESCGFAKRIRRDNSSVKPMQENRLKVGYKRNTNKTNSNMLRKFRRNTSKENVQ

[14] = tested on: MDA-MB-157; experiment: Induction of mitotic arrest in TP53 mutant human MDA-MB-157 cells assessed as multipolar spindle arrays by measuring pericentriolar material incubated for 24 hrs by mitotic index assay; format: functional, cell-based; conditions: MDA-MB-157, 24 h
[15] = AUC (0 to 24 hrs) in CD-1 mouse xenografted with human OVCAR-3 cells at 100 mg/kg, po by LC-MS/MS analysis; format: ADME, organism-based; set-up: dose 100 mg/kg, route po; conditions: in vivo
[16] = Clearance in CD-1 mouse at 1 mg/kg, iv and 10 mg/kg, po; format: ADME, organism-based; conditions: in vivo
[17] = target: T2, Kinesin-like protein KIF18A (Homo sapiens, UniProt Q8NI77); experiment: Inhibition of recombinant His-tagged human KIF18A (1 to 467 residues) expressed in Trichoplusia ni insect cells assessed as inhibition of microtubule-stimulated ATPase activity preincubated for 30 mins followed by ATP addition and further incubated for 15 mins by ADP-Glo reagent based assay; set-up: species or system Insect cell
T2 sequence (Q8NI77 whole entry): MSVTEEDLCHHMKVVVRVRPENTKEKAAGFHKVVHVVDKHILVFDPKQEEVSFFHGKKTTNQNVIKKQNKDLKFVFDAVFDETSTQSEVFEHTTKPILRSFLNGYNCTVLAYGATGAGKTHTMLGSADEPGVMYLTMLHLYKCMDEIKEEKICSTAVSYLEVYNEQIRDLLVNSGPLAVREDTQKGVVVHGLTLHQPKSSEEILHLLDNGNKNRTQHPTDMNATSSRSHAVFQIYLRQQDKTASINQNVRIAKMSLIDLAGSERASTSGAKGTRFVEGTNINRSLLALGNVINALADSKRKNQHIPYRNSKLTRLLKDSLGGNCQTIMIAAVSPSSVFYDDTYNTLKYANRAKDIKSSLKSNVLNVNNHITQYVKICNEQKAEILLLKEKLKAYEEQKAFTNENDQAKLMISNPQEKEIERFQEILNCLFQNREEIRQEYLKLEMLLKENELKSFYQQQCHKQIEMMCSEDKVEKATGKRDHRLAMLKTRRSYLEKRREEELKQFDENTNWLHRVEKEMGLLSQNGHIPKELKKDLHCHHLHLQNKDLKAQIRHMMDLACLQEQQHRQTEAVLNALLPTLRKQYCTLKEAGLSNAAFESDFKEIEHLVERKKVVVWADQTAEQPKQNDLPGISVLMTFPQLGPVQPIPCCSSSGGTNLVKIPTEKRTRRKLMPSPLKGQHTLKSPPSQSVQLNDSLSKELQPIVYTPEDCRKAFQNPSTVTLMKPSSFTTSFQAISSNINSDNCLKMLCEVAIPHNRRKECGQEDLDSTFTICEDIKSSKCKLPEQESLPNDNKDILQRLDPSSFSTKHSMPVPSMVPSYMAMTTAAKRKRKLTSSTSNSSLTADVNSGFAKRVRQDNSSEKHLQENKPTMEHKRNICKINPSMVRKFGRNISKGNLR

solubility kinetic [2]: 500 µM (≈ 269 µg/mL)
Vdss [3]: 2 L/kg
EC50 [4]: 32 nM
Cmax [5]: 22.6 µM
fraction unbound [6]: 0.022
IC50 [7]: 86000 nM
bioavailability [9]: 35%
concentration at 8 h [10]: 17.5 µM
concentration at 8 h [11]: 5.7 µM
solubility kinetic [12]: 209 µM (≈ 112 µg/mL)
IC50 [13]: 77 nM
IC50 [14]: 32 nM
AUC(0-t) [15]: 25.7 µM·h
CL [16]: 23.3 mL/min/kg
IC50 [17]: 96 nM
Structure (SMILES): CC(C)(C)NS(=O)(=O)c1cccc(NC(=O)c2ncc(NS(C)(=O)=O)nc2N2CCC3(CC2)CC3)n1
Time [1]: >=12 hr
Activity [8]: inactive
